Where a name gives a salt, the structure may show the parent alone.

Results on one compound are retold here after patent US20230346717A1, “IDENTIFICATION AND USE OF COMPOUNDS IN THE TREATMENT OR PREVENTION OF SEVERE ACUTE RESPIRATORY SYNDROME CORONAVIRUS 2” (priority 2020, published 2023).

What all share (type): cell-based, human
One experiment deals with CTSK. The experiment is described as follows: Gene expression assay, lysosome gene CTSK. The following applies: probe 202450_s_at; ARPE-19/HPV-16, 10 μM, 24 h. From the text: (§1) A drug screen was used to test agents having the potential to treat or prevent SARS-CoV-2 infection. The retinal pigment epithelia cell line, ARPE-19/HPV-16, was chosen to establish a database of drug profiles because of its non-cancerous, human origin, with a normal karyotype. ARPE-19/HPV-16 can be easily grown as monolayer in 96-well plates and expresses a variety of well known, neuronal, cell surface receptors that include the dopamine receptor D2, the serotonin receptors 1A, 2A, and 2C, the muscarinic receptor M3, and the histamine receptor H1.
(§2) Cell lines were propagated according to supplier's specifications (ATCC Manassas, VA). Compounds were obtained from Sigma (St. Louis, MO) or Vanda Pharmaceuticals (Washington, DC). Cells were aliquoted on 96-well plates (˜2×10^5 cells/well) and incubated for 24 hours prior to providing fresh media with a drug, or the drug vehicle (water, dimethyl sulfoxide, ethanol, methanol, or phosphate-buffered saline solution). Drugs were diluted 1000-fold in buffered Advanced D-MEM/F-12 culture medium (Invitrogen, Carlsbad, CA) containing nonessential amino acids and 110 mg/L sodium pyruvate. […]
(§3) Cells were harvested 24 hours after treatment and RNA was extracted using the RNeasy 96 protocol (Qiagen, Valencia, CA). […] A total of 708 microarrays were analyzed including 74 for 18 antipsychotics, 499 for 448 other compounds, and 135 for vehicle controls. […]

A further experiment relates to LGMN. The experiment is described as follows: Gene expression assay, lysosome gene LGMN. The following applies: probe 201212_at; ARPE-19/HPV-16, 10 μM, 24 h.
From the text: as §1, §2, §3

For the next experiment, the system named is CTSH. The experiment is described as follows: Gene expression assay, lysosome gene CTSH. The following applies: probe 202295_s_at; ARPE-19/HPV-16, 10 μM, 24 h.
From the text: as §1, §2, §3

The next experiment has as its system RNASET2. The experiment is described as follows: Gene expression assay, lysosome gene RNASET2. The following applies: probe 217983_s_at; ARPE-19/HPV-16, 10 μM, 24 h.
From the text: as §1, §2, §3

Another experiment relates to PSAP. Description: Gene expression assay, lysosome gene PSAP. The following applies: probe 200866_s_at; ARPE-19/HPV-16, 10 μM, 24 h.
From the text: as §1, §2, §3

For another experiment, the system named is MAR3. Description: Gene expression assay, lysosome gene MAR3. The following applies: probe 213256_at; ARPE-19/HPV-16, 10 μM, 24 h.
From the text: as §1, §2, §3

`NC12CC3CC(CC(C3)C1)C2` [Amantadine Hydrochloride]: in the experiment with CTSK, the “avg_tx (log2) CTSK” value came out at 7.09 log2 and the “diff (log2) CTSK” value is −1.81 log2. Moreover, in the experiment with LGMN, the “avg_tx (log2) LGMN” value came out at 8.33 log2 and the “diff (log2) LGMN” value is −1.35 log2. In the experiment with CTSH, the “avg_tx (log2) CTSH” value worked out at 9.62 log2 and the “diff (log2) CTSH” value was −2.51 log2. Moreover, in the experiment on RNASET2, the “avg_tx (log2) RNASET2” value was 8 log2 and the “diff (log2) RNASET2” value was −1.81 log2. Besides, in the experiment with PSAP, the “avg_tx (log2) PSAP” value turned out to be 10.59 log2 and the “diff (log2) PSAP” value was −1.36 log2. In the experiment on MAR3, the “avg_tx (log2) MAR3” value is 5.55 log2 and the “diff (log2) MAR3” value is recorded as −1.57 log2.
